Experimental data reported in the NIST ThermoML archive (doi:10.1016/j.tca.2014.12.020).
± gives the expanded uncertainty stated by the source.

Assays:
[1] = Molar enthalpy of transition or fusion; conditions: Crystal; DSC
[2] = molar heat capacity at constant pressure; conditions: 101.33 kPa, Small sample (50 mg) DSC
[3] = Crystal; DTA

Row | Compound | Molar enthalpy of transition or fusion [1] | molar heat capacity at constant pressure ([2]; 298.15 K, Crystal) | molar heat capacity at constant pressure ([2]; 338.15 K, Liquid) | molar heat capacity at constant pressure ([2]; 338.15 K, Crystal) | Normal melting temperature [3]
1 | CCCCCCCCCCCCCCCCCC(=O)O [octadecanoic acid] | 12.4 ± 0.359 kcal/mol | 517.75 ± 23 J/K/mol | 648.61 ± 28 J/K/mol | – | –
2 | CCCCCCCCCCCCOS(=O)(=O)[O-].[Na+] [sodium dodecyl sulfate] | – | 444.11 ± 20 J/K/mol | – | 553.69 ± 23 J/K/mol | –
3 | CCCCCCCCCCCCCC(=O)O [tetradecanoic acid] | 10.5 ± 0.263 kcal/mol | 385.95 ± 16 J/K/mol | 509.27 ± 21 J/K/mol | – | 53.00 ± 5 °C
